From the NIST ThermoML archive (doi:10.1021/je100484n)

What was measured:
[1] = xn = mol fraction of the nth substance listed; details: 101 kPa, Liquid
[2] = refractive index (Na D-line) (dimensionless); xn = mol fraction of the nth substance listed; details: 101 kPa, Liquid

CC(C)(C)O [2-methylpropan-2-ol] + CCCCCCC
Details | mass density, 303.15 K [kg/m3] | mass density, 308.15 K [kg/m3] | mass density, 313.15 K [kg/m3] | mass density, 318.15 K [kg/m3] | mass density, 323.15 K [kg/m3] | refractive index, 303.15 K | refractive index, 308.15 K | refractive index, 313.15 K | refractive index, 318.15 K | refractive index, 323.15 K
[1], x1 = 0.1006 | 679.898 | 675.406 | 670.867 | 666.278 | 661.645 | – | – | – | – | –
[1], x1 = 0.1502 | 682.8 | 678.262 | 673.669 | 669.017 | 664.315 | – | – | – | – | –
[1], x1 = 0.2 | 685.899 | 681.327 | 676.692 | 671.995 | 667.235 | – | – | – | – | –
[1], x1 = 0.3 | 692.705 | 688.078 | 683.382 | 678.612 | 673.771 | – | – | – | – | –
[1], x1 = 0.4 | 700.298 | 695.628 | 690.882 | 686.056 | 681.144 | – | – | – | – | –
[1], x1 = 0.4998 | 708.705 | 703.995 | 699.207 | 694.329 | 689.366 | – | – | – | – | –
[1], x1 = 0.6 | 718.327 | 713.568 | 708.726 | 703.799 | 698.776 | – | – | – | – | –
[1], x1 = 0.7 | 729.448 | 724.603 | 719.685 | 714.683 | 709.587 | – | – | – | – | –
[1], x1 = 0.7998 | 742.308 | 737.338 | 732.305 | 727.201 | 721.991 | – | – | – | – | –
[1], x1 = 0.8479 | 749.34 | 744.297 | 739.195 | 734.015 | 728.76 | – | – | – | – | –
[1], x1 = 0.8998 | 757.564 | 752.448 | 747.271 | 742.022 | 736.693 | – | – | – | – | –
[1], x1 = 0.9499 | 766.164 | 760.994 | 755.749 | 750.424 | 745.02 | – | – | – | – | –
[1], x1 = 1 | 775.412 | 770.193 | 764.884 | 759.488 | 754.015 | – | – | – | – | –
[2], x1 = 0.1006 | – | – | – | – | – | 1.3814 | 1.37865 | 1.37591 | 1.37312 | 1.37031
[2], x1 = 0.1502 | – | – | – | – | – | 1.38092 | 1.37816 | 1.37539 | 1.37258 | 1.36973
[2], x1 = 0.2 | – | – | – | – | – | 1.38051 | 1.37775 | 1.37496 | 1.37213 | 1.36928
[2], x1 = 0.3 | – | – | – | – | – | 1.37984 | 1.37711 | 1.37431 | 1.37149 | 1.36865
[2], x1 = 0.4 | – | – | – | – | – | 1.37936 | 1.37667 | 1.37387 | 1.37108 | 1.36828
[2], x1 = 0.4998 | – | – | – | – | – | 1.37907 | 1.37641 | 1.3736 | 1.37085 | 1.36807
[2], x1 = 0.6 | – | – | – | – | – | 1.37899 | 1.37633 | 1.3735 | 1.37079 | 1.36801
[2], x1 = 0.7 | – | – | – | – | – | 1.37917 | 1.37649 | 1.37364 | 1.37094 | 1.36814
[2], x1 = 0.7998 | – | – | – | – | – | 1.37969 | 1.37697 | 1.37411 | 1.37139 | 1.36855
[2], x1 = 0.8479 | – | – | – | – | – | 1.38009 | 1.37735 | 1.37449 | 1.37175 | 1.36889
[2], x1 = 0.8998 | – | – | – | – | – | 1.38066 | 1.37791 | 1.37505 | 1.37229 | 1.36942
[2], x1 = 0.9499 | – | – | – | – | – | 1.38136 | 1.3786 | 1.37577 | 1.37297 | 1.37009
[2], x1 = 1 | – | – | – | – | – | 1.38222 | 1.37947 | 1.37667 | 1.37384 | 1.37097
